For one series, the system named is SKOV-3 cells. In words: In vitro cytotoxicity of the peptide derivative (I), MTS method, SKOV-3 cells. It is filed as cell-based, human. The text has this: (§1) The cytotoxicity of the peptide derivative (I) or a pharmaceutically acceptable salt thereof, or the conjugate including the peptide derivative (I) or a pharmaceutically acceptable salt thereof can be evaluated with an in vitro study. Examples of the in vitro studies include the trypan blue dye exclusion method, the lactate dehydrogenase (LDH) activity assay, [^3H]thymidine incorporation method, or propidium iodide nuclear stain that each measures the number of dead cells or surviving cells post treated with the compound; a method using dyes such as MTT, MTS, and WST (Current Protocol in Toxicology, (2000), 2.6.1-2.6.27); or a method in which the amount of ATP is measured using CellTiter-Glow (Promega Corporation) and the like, and preferably include the method in which the number of surviving cells post treated with the compound is measured by using the MTS method to determine values of the cytotoxicity at that time from 50% effect-concentration (EC50). Furthermore, in the evaluation of the cytotoxicity of the conjugate including the peptide derivative (I) or a pharmaceutically acceptable salt thereof, preferred method is the one that for a certain time, cells are treated with a medium containing the compound, the cells are then transferred to a medium not containing the compound, and the number of surviving cells are measured after cultivation for additional certain time (Bioconjugate Chemistry., 2014; 25: pp. 560-568). For the in vitro studies, human ovarian cancer cell SKOV-3 cells, human alveolar basement epithelial gland cancer cell A549 cells, mouse lymphocytic leukocyte L1210 cells and the like are used.
Background: Tetrazolium dyes change colour on reduction, which living cells bring about.

Another series relates to L1210 cells. As to the kind of experiment: In vitro cytotoxicity of the peptide derivative (I), MTS method, L1210 cells. In kind it is cell-based, mouse.
Excerpt: as §1

Series [1] can be described thus: Parallel Artificial Membrane Permeation Assay (PAMPA), Pre-coated PAMPA Plate System (Corning). Conditions: for Membrane Permeability Coefficient: 200 μmol/L in PBS containing 20% of methanol, room temperature, five hours, N.D. = Acceptor side concentration less than lower limit of determinate quantity. As for the experimental part: Reference Example 14, the Compound of Reference Example 16, and the Compound of Comparative Example was Evaluated by Using Pre-Coated PAMPA PlateSystem (Corning)
A frozen-stored, Pre-coated PAMPA Plate System was allowed to stand at room temperature for thirty minutes or more. Subsequently, 320 μL of the standard solution was added to a Donor side plate of Pre-coated PAMPA Plate System, and 200 μL of the PBS containing 20% of methanol was added to an Acceptor side plate. Both of the plates were set for the system, and the plates allowed to stand at room temperature for five hours. The reaction liquid in each well of the Donor side and Acceptor side plates was subjected to LC/MS analysis (hereinafter, LC/MS-3), and the concentration of the compounds in each well calculated.
Using the obtained concentration of the compounds in the reaction liquid in each well, the membrane permeability coefficients (Pe) (cm/s) were calculated by the following formula: Cequilibrium=[…] Pe=[−ln(1−CA/Cequilibrium)]/S×(1/VD+1/VA)×t Cequilibrium: Equilibrium concentration of the wells in the Donor side and Acceptor side plates CD: Concentration after five hours of the wells in the Donor side plate (mmol/L) VD: Volume of the standard solution added to the wells in the Donor side plate (0.32 mL) CA: Concentration after five hours of the wells in the Acceptor side plate (mmol/L) VA: Volume of the PBS containing 20% of methanol added to the wells in the Acceptor side plate (0.2 mL) S: Surface of the membrane (0.3 cm^2) t: Standing time 18,000 s (=5 hrs).

The next series relates to A549 cells. In words: In vitro cytotoxicity of the peptide derivative (I), MTS method, A549 cells. It is filed as cell-based, human.
Excerpt: as §1

We go through 13 compounds from patent US10792365B2, “Peptide derivative and use thereof” (Toray Industries, Inc., priority 2016, dated 2020).

Each structure is given as a SMILES string. pEC50: −log10 of the molar value. Structures can show the parent of a compound that is named as a salt. Where two headings read alike, the source gives them in different places.

The term pEC50 denotes the negative decadic logarithm of the EC50, by convention in mol/L. A low value points to a large EC50. Broadly, the Papp is a coefficient for how fast a substance crosses the barrier. Low readings indicate slow passage, high ones fast passage.

`CC[C@H](C)[C@@H]([C@@H](CC(=O)N1CCC[C@H]1[C@H](OC)[C@@H](C)C(=O)N[C@@H](Cc1ccccc1)c1nc(C(=O)NCCS)cs1)OC)N(C)C(=O)[C@@H](NC(=O)[C@H](C(C)C)N(C)C)C(C)C` [Example 1]: the pEC50 was 9.36 in the series on SKOV-3 cells (Homo sapiens, SK-OV-3); 7.50 in the series on L1210 cells (Mus musculus); 8.71 with A549 cells (Homo sapiens). The compound further showed an apparent permeability (Papp) at 5 h, 200 μmol/L in series [1] of 1.15 ×10⁻⁶ cm/s.
`CC[C@H](C)[C@@H]([C@@H](CC(=O)N1CCC[C@H]1[C@H](OC)[C@@H](C)C(=O)N[C@@H](Cc1ccccc1)c1nc(C(=O)NCCNC)cs1)OC)N(C)C(=O)[C@@H](NC(=O)[C@H](C(C)C)N(C)C)C(C)C` [Reference Example 14, 2-((S)-1-(((2S,3R)-3-((S)-1-((3R,4S,5S)-4-((S)-2-((S)-2-(dimethylamino)-3-methylbutanamido)-N,3-dimethylbutanamido)-3-methoxy-5-methylheptanoyl)pyrrolidin-2-yl)-3-methoxy-2-methylpropanamido)-2-phenylethyl)-N-(2-(methylamino)ethyl)thiazole-4-carboxamidedihydrochloride, reference compound]: the pEC50 is < 8.00 in the series on SKOV-3 cells (Homo sapiens, SK-OV-3); 7.57 in the series with L1210 cells (Mus musculus); 8.01 in the series with A549 cells (Homo sapiens). Moreover, in series [1], the apparent permeability (Papp) at 5 h, 200 μmol/L came out at 0.004 ×10⁻⁶ cm/s.
For `CC[C@H](C)[C@@H]([C@@H](CC(=O)N1CCC[C@H]1[C@H](OC)[C@@H](C)C(=O)N[C@@H](Cc1ccccc1)c1nc(C(=O)N(C)CCS)cs1)OC)N(C)C(=O)[C@@H](NC(=O)[C@H](C(C)C)N(C)C)C(C)C` [Example 3], the pEC50 is 8.98 in the series with SKOV-3 cells (Homo sapiens, SK-OV-3); 8.16 in the series on L1210 cells (Mus musculus); 8.91 in the series on A549 cells (Homo sapiens). Moreover, the Papp at 5 h, 200 μmol/L in series [1] was determined as 1.14 ×10⁻⁶ cm/s.
In the same order, the values of `CC[C@H](C)[C@@H]([C@@H](CC(=O)N1CCC[C@H]1[C@H](OC)[C@@H](C)C(=O)N[C@@H](Cc1ccccc1)c1nc(C(=O)OCCO)cs1)OC)N(C)C(=O)[C@@H](NC(=O)[C@H](C(C)C)N(C)C)C(C)C` [Example 8, 2-hydroxyethyl 2-((S)-1-((2R,3R)-3-((S)-1-((3R,4S,5S)-4-((S)-2-((S)-2-(dimethylamino)-3-methylbutanamido)-N,3-dimethylbutanamido)-3-methoxy-5-methylheptanoyl)pyrrolidin-2-yl)-3-methoxy-2-methylpropanamido)-2-phenylethyl)thiazole-4-carboxylate] are 10.05, 8.32, 8.76 and 0.04 ×10⁻⁶ cm/s.
On the same counts, the results for `CC[C@H](C)[C@@H]([C@@H](CC(=O)N1CCC[C@H]1[C@H](OC)[C@@H](C)C(=O)N[C@@H](Cc1ccccc1)c1nc(C(=O)NCCO)cs1)OC)N(C)C(=O)[C@@H](NC(=O)[C@H](C(C)C)N(C)C)C(C)C` [Example 7] are 8.33, 7.55, 8.76 and 0.02 ×10⁻⁶ cm/s.
Regarding `CC[C@H](C)[C@@H]([C@@H](CC(=O)N1CCC[C@H]1[C@H](OC)[C@@H](C)C(=O)N[C@@H](Cc1ccccc1)c1nc(C(=O)N(C)CCNC)cs1)OC)N(C)C(=O)[C@@H](NC(=O)[C@H](C(C)C)N(C)C)C(C)C` [Example 6, 2-((S)-1-((2R,3R)-3-((S)-1-((3R,4S,5S)-4-((S)-2-((S)-2-(dimethylamino)-3-methylbutanamido)-N,3-dimethylbutanamido)-3-methoxy-5-methylheptanoyl)pyrrolidin-2-yl)-3-methoxy-2-methylpropanamido)-2-phenylethyl)-N-methyl-N-(2-(methylamine)ethyl)thiazole-4-carboxamide dihydrochloride], the pEC50 is 9.66 with SKOV-3 cells (Homo sapiens, SK-OV-3); 7.76 in the series with L1210 cells (Mus musculus); 8.71 in the series with A549 cells (Homo sapiens).
For the compound `CCNC(=O)c1csc([C@H](Cc2ccccc2)NC(=O)[C@@H](C)[C@@H](OC)[C@@H]2CCCN2C(=O)C[C@@H](OC)[C@H]([C@@H](C)CC)N(C)C(=O)[C@@H](NC(=O)[C@H](C(C)C)N(C)C)C(C)C)n1` [Comparative Example, reference compound], the pEC50 with SKOV-3 cells is 9.26; in the series with L1210 cells, 8.19; in the series with A549 cells it was 9.13. Further, the “Membrane Permeability Coefficient” value in series [1] is recorded as 1.68 10^−6 cm/s.
Regarding `CC[C@H](C)[C@@H]([C@@H](CC(=O)N1CCC[C@H]1[C@H](OC)[C@@H](C)C(=O)N[C@@H](Cc1ccccc1)c1nc(C(=O)NCCc2ccc(N)cc2)cs1)OC)N(C)C(=O)[C@@H](NC(=O)[C@H](C(C)C)N(C)C)C(C)C` [Example 10], the pEC50 was 9.57 with SKOV-3 cells (Homo sapiens, SK-OV-3); 8.39 in the series on L1210 cells (Mus musculus); 8.97 in the series with A549 cells (Homo sapiens). Further, the Papp at 5 h, 200 μmol/L in series [1] was found to be 0.3 ×10⁻⁶ cm/s.
Take `CC[C@H](C)[C@@H]([C@@H](CC(=O)N1CCC[C@H]1[C@H](OC)[C@@H](C)C(=O)N[C@@H](Cc1ccccc1)c1nc(C(=O)O)cs1)OC)N(C)C(=O)[C@@H](NC(=O)[C@H](C(C)C)N(C)C)C(C)C` [Reference Example 1, 2-((S)-1-((2R,3R)-3-((S)-1-((3R,4S,5S)-4-((S)-2-((S)-2-(dimethylamino)-3-methylbutanamido)-N,3-dimethylbutanamido)-3-methoxy-5-methylheptanoyl)pyrrolidin-2-yl)-3-methoxy-2-methylpropanamido)-2-phenylethyl)thiazole-4-carboxylic acid, reference compound]: the negative logarithm of the EC50 (pEC50) was < 8.00 in the series on SKOV-3 cells (Homo sapiens, SK-OV-3); < 7.30 in the series on L1210 cells (Mus musculus); < 8.00 in the series with A549 cells (Homo sapiens). Moreover, the “Membrane Permeability Coefficient” value in series [1] is listed as 0.01 10^−6 cm/s.
Turning to `CC[C@H](C)[C@@H]([C@@H](CC(=O)N1CCC[C@H]1[C@H](OC)[C@@H](C)C(=O)N[C@@H](Cc1ccccc1)c1nc(C(=O)N(C)CCN)cs1)OC)N(C)C(=O)[C@@H](NC(=O)[C@H](C(C)C)N(C)C)C(C)C` [Example 5, N-(2-aminoethyl)-2-((S)-1-((2R,3R)-3-((S)-1-((3R,4S,5S)-4-((S)-2-((S)-2-(dimethylamino)-3-methylbutanamido)-N,3-dimethylbutanamido)-3-methoxy-5-methylheptanoyl)pyrrolidin-2-yl)-3-methoxy-2-methylpropanamido)-2-phenylethyl)-N-methylthiazole-4-carboxamide dihydro chloride], the negative-log EC50 (pEC50) in the series with SKOV-3 cells (Homo sapiens, SK-OV-3) was 9.25; in the series with L1210 cells (Mus musculus), 7.93; in the series on A549 cells (Homo sapiens), 9.09. In series [1], the Papp at 5 h, 200 μmol/L was found to be 0.01 ×10⁻⁶ cm/s.
In the same order, the values of `CC[C@H](C)[C@@H]([C@@H](CC(=O)N1CCC[C@H]1[C@H](OC)[C@@H](C)C(=O)N[C@@H](Cc1ccccc1)c1nc(C(=O)NCCN)cs1)OC)N(C)C(=O)[C@@H](NC(=O)[C@H](C(C)C)N(C)C)C(C)C` [Reference Example 12, N-(2-aminoethyl)-2-((S)-1-(((2S,3R)-3-((S)-1-((3R,4S,5S)-4-((S)-2-((S)-2-(dimethylamino)-3-methylbutanamido)-N, 3-dimethylbutanamido)-3-methoxy-5-methylheptanoyl)pyrrolidin-2-yl)-3-methoxy-2-methylpropanamido)-2-phenylethyl)thiazole-4-carboxamidedihydrochloride, reference compound] are < 8.00, < 7.30, < 8.00 and 0.01 ×10⁻⁶ cm/s.
On the same counts, the results for `CC[C@H](C)[C@@H]([C@@H](CC(=O)N1CCC[C@H]1[C@H](OC)[C@@H](C)C(=O)N[C@@H](Cc1ccccc1)c1nc(C(=O)N(C)CCO)cs1)OC)N(C)C(=O)[C@@H](NC(=O)[C@H](C(C)C)N(C)C)C(C)C` [Example 9] are 8.82, 8.07, 8.79 and 0.08 ×10⁻⁶ cm/s.
`CC[C@H](C)[C@@H]([C@@H](CC(=O)N1CCC[C@H]1[C@H](OC)[C@@H](C)C(=O)N[C@@H](Cc1ccccc1)c1nc(C(=O)NCCNC(=O)CCS)cs1)OC)N(C)C(=O)[C@@H](NC(=O)[C@H](C(C)C)N(C)C)C(C)C` [Reference Example 16, reference compound]: the pEC50 with SKOV-3 cells (Homo sapiens, SK-OV-3) was < 8.00; in the series on L1210 cells (Mus musculus) it was < 7.30; in the series with A549 cells (Homo sapiens), < 8.00.
